One block for each compound: values may come before it.
Key:
Experiment in all cases: Caliper, Mobility shift assay off-chip
[1] = molecular target: PTK6 (human) (UniProt Q13882)
[2] = molecular target: WNK1 (human) (UniProt Q9H4A3)
[3] = molecular target: TYRO3 (human) (UniProt Q06418)
[4] = molecular target: IKBKE (human) (UniProt Q14164)
[5] = molecular target: TEC (human) (UniProt P42680)
[6] = molecular target: NTRK1 (human) (UniProt P04629)
[7] = molecular target: BRSK1 (human) (UniProt Q8TDC3)
[8] = molecular target: CAMK2A (human) (UniProt Q9UQM7)
[9] = molecular target: CSNK2A1 (human) (UniProt P68400)
[10] = molecular target: DAPK1 (human) (UniProt P53355)
[11] = molecular target: ROCK1 (human) (UniProt Q13464)
[12] = molecular target: PAK7 (human) (UniProt Q9P286)
[13] = molecular target: TNK1 (human) (UniProt Q13470)
[14] = molecular target: SRPK3 (human) (UniProt Q9UPE1)
[15] = molecular target: PTK2 (human) (UniProt Q05397)
[16] = molecular target: EPHB4 (human) (UniProt P54760)
[17] = molecular target: MST4 (human) (UniProt Q9P289)
[18] = molecular target: FYN (human) (UniProt P06241)
[19] = molecular target: ERBB2 (human) (UniProt P04626)
[20] = molecular target: PAK3 (human) (UniProt O75914)
[21] = molecular target: YES1 (human) (UniProt P07947)
[22] = molecular target: EPHA1 (human) (UniProt P21709)
[23] = molecular target: CLK2 (human) (UniProt P49760)
[24] = molecular target: PRKX (human) (UniProt P51817)
[25] = molecular target: ALK EML4 (human) (UniProt Q9HC35+Q9UM73)
[26] = molecular target: TEK (human) (UniProt Q02763)
[27] = molecular target: NTRK2 (human) (UniProt Q16620)
[28] = molecular target: MARK2 (human) (UniProt Q7KZI7)
[29] = molecular target: NEK1 (human) (UniProt Q96PY6)
[30] = molecular target: HIPK3 (human) (UniProt Q9H422)
[31] = molecular target: MKNK1 (human) (UniProt Q9BUB5)
[32] = molecular target: MAPK13 (human) (UniProt O15264)
[33] = molecular target: PRKACA (human) (UniProt P17612)
[34] = molecular target: CAMK1D (human) (UniProt Q8IU85)

Chain of CLK2 (human) (P49760 whole entry, looked up): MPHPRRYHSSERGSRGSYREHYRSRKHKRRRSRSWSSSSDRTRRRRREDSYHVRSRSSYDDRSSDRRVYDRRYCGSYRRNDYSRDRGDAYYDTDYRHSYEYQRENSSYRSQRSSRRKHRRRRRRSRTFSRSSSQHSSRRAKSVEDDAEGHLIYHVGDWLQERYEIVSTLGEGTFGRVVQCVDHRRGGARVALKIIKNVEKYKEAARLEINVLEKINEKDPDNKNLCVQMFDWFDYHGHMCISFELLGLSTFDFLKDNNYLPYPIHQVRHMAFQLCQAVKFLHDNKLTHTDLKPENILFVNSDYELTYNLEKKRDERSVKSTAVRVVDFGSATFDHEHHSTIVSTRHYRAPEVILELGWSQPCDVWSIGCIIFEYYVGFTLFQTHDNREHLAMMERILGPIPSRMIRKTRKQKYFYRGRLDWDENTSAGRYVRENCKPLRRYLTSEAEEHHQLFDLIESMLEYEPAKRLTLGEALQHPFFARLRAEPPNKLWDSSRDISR
Chain of MST4 (human) (Q9P289 whole entry, looked up): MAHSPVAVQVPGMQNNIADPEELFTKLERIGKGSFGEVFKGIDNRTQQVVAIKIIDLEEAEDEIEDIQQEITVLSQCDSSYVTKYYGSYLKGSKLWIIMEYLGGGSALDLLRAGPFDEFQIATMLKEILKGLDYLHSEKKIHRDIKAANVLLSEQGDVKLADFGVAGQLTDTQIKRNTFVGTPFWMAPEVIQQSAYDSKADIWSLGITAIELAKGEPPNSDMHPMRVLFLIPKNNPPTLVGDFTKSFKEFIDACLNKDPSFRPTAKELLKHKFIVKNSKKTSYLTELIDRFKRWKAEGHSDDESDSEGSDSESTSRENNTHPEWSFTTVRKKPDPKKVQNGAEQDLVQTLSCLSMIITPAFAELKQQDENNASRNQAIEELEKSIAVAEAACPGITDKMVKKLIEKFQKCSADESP
Chain of NTRK1 (human) (P04629 whole entry, looked up): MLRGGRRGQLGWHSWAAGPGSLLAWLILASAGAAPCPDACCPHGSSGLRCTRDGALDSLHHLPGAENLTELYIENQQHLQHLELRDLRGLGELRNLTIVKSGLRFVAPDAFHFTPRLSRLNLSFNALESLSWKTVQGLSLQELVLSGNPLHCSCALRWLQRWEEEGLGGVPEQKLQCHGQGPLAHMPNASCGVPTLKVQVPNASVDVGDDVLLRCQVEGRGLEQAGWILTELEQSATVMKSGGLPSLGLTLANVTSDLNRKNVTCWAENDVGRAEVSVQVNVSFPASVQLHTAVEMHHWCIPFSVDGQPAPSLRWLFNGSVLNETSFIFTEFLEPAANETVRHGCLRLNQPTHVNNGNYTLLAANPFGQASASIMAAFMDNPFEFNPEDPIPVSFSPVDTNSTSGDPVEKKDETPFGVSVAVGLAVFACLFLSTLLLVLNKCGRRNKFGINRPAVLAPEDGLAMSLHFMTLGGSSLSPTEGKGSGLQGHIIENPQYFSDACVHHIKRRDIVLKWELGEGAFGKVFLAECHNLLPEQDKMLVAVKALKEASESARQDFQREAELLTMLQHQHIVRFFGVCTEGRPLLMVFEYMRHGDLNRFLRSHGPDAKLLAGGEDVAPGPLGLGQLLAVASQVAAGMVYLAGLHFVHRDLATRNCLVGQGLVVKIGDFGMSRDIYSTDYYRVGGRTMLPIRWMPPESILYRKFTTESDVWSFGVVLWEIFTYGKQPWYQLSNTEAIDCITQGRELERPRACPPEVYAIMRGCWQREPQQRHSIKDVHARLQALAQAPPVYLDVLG
Chain of CAMK2A (human) (Q9UQM7 whole entry, looked up): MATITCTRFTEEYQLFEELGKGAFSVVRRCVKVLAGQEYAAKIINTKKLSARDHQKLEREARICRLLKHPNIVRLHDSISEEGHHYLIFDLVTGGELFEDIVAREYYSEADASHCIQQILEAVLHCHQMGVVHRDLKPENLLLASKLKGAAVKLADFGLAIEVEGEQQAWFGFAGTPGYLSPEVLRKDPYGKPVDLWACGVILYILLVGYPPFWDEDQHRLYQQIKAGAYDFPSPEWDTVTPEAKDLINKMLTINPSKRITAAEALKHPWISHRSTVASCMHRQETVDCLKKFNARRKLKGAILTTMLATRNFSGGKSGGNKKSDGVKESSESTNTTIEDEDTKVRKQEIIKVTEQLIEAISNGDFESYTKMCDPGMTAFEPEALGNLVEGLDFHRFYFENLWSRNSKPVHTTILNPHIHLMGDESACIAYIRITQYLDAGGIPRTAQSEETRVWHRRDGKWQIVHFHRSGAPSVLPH
Chain of EPHB4 (human) (P54760 whole entry, looked up): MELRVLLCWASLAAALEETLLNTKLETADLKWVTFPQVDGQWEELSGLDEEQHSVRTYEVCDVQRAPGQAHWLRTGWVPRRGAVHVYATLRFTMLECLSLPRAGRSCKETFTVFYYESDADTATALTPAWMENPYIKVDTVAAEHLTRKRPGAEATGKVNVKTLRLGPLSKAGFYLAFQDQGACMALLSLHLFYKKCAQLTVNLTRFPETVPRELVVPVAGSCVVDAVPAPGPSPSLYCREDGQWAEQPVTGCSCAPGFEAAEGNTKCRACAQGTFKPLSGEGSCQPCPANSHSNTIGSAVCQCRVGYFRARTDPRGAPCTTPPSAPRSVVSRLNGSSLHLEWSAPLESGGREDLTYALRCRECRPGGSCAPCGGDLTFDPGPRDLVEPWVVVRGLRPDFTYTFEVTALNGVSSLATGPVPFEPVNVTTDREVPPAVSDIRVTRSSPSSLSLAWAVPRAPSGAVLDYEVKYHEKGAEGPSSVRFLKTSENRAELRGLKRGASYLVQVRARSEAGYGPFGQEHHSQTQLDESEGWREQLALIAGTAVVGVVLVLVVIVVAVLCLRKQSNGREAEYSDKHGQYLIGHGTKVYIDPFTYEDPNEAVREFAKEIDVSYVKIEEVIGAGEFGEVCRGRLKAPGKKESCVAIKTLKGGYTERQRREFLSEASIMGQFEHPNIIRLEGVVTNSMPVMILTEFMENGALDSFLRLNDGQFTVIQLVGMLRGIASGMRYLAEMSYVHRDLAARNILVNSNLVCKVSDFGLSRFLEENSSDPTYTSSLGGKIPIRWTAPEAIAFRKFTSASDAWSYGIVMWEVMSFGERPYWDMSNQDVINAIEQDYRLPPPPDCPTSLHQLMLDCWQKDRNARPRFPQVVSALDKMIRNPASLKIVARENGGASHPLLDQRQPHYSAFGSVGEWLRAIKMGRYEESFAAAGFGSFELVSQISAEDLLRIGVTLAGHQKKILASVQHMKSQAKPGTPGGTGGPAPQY
Chain of PTK2 (human) (Q05397 whole entry, looked up): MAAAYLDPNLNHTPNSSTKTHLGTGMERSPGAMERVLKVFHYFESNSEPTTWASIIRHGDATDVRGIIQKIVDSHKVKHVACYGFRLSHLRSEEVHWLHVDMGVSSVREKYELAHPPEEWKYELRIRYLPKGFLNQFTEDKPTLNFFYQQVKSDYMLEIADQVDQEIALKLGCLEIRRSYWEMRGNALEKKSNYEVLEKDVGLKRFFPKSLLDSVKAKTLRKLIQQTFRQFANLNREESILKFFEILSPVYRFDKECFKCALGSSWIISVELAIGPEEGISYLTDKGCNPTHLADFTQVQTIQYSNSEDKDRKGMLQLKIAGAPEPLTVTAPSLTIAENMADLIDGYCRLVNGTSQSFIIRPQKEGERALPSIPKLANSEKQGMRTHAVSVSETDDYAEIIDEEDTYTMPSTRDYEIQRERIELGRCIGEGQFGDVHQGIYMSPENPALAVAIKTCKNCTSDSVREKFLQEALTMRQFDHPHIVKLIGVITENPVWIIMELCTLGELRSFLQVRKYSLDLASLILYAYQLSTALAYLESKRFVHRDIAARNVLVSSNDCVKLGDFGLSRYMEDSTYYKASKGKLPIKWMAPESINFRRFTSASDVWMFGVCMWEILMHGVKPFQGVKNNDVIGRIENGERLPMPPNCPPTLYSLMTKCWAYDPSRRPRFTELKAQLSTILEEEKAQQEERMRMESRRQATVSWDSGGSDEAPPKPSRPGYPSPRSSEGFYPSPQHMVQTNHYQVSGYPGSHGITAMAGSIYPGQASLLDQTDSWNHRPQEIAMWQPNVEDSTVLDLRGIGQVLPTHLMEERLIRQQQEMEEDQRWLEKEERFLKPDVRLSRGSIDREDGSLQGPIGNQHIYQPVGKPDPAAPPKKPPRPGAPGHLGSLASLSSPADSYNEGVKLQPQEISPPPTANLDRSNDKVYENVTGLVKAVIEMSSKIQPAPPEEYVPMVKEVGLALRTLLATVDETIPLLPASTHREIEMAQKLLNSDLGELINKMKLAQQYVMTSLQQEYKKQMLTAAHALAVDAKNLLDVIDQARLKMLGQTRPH
Chain of TNK1 (human) (Q13470 whole entry, looked up): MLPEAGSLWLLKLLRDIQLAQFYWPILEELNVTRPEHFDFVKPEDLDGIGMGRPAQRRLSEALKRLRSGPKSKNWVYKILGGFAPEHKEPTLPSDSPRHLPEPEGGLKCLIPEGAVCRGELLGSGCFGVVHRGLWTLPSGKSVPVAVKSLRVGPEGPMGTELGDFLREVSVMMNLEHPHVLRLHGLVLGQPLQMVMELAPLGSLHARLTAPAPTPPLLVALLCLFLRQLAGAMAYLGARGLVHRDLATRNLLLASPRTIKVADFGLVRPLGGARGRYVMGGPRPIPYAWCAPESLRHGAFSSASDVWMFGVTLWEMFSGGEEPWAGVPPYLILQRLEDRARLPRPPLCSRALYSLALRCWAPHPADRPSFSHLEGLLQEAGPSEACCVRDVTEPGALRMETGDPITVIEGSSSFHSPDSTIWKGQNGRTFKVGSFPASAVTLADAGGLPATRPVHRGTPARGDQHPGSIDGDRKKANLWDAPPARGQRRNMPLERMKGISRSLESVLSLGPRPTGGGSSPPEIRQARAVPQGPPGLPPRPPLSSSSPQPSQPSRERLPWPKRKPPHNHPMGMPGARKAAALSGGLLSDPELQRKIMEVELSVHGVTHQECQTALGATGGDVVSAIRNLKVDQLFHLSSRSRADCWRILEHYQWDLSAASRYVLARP

- inhibition ([1]; compound 0.001 µM): -6%
- inhibition ([1]; compound 0.02 µM): -4.8%
- inhibition ([2]; compound 0.001 µM): 4.1%
- inhibition ([2]; compound 0.02 µM): 2.1%
- inhibition ([3]; compound 0.001 µM): -1.2%
- inhibition ([3]; compound 0.02 µM): -2%
- inhibition ([4]; compound 0.001 µM): -6.5%
- inhibition ([4]; compound 0.02 µM): -5.1%
- inhibition ([5]; compound 0.001 µM): 3.2%
- inhibition ([5]; compound 0.02 µM): -3.2%
- inhibition ([6]; compound 0.001 µM): 2.9%
- inhibition ([6]; compound 0.02 µM): 21.6%
- inhibition ([7]; compound 0.001 µM): -2.4%
- inhibition ([7]; compound 0.02 µM): 20.1%
- inhibition ([8]; compound 0.001 µM): 3.7%
- inhibition ([8]; compound 0.02 µM): 3.2%
- inhibition ([9]; compound 0.001 µM): -3.2%
- inhibition ([9]; compound 0.02 µM): -4.4%
- inhibition ([10]; compound 0.001 µM): -5%
- inhibition ([10]; compound 0.02 µM): 4.8%
- inhibition ([11]; compound 0.001 µM): 5.8%
- inhibition ([11]; compound 0.02 µM): 0.7%
- inhibition ([12]; compound 0.001 µM): -2.5%
- inhibition ([12]; compound 0.02 µM): 7%
- inhibition ([13]; compound 0.001 µM): 26.9%
- inhibition ([13]; compound 0.02 µM): 24.8%
- inhibition ([14]; compound 0.001 µM): -3.3%
- inhibition ([14]; compound 0.02 µM): -0.9%
- inhibition ([15]; compound 0.001 µM): -7.1%
- inhibition ([15]; compound 0.02 µM): -5.9%
- inhibition ([16]; compound 0.001 µM): -7.3%
- inhibition ([16]; compound 0.02 µM): -5.5%
- inhibition ([17]; compound 0.001 µM): -4.6%
- inhibition ([17]; compound 0.02 µM): -8%
- inhibition ([18]; compound 0.001 µM): 7.3%
- inhibition ([18]; compound 0.02 µM): 6.1%
- inhibition ([19]; compound 0.001 µM): -1.2%
- inhibition ([19]; compound 0.02 µM): -1.4%
- inhibition ([20]; compound 0.001 µM): -1.3%
- inhibition ([20]; compound 0.02 µM): 7.8%
- inhibition ([21]; compound 0.001 µM): 5.9%
- inhibition ([22]; compound 0.001 µM): -5.6%
- inhibition ([22]; compound 0.02 µM): -4.2%
- inhibition ([23]; compound 0.001 µM): -3.8%
- inhibition ([23]; compound 0.02 µM): 5.8%
- inhibition ([24]; compound 0.001 µM): 0.1%
- inhibition ([24]; compound 0.02 µM): -1.7%
- inhibition ([25]; compound 0.001 µM): -2%
- inhibition ([25]; compound 0.02 µM): -3.9%
- inhibition ([26]; compound 0.001 µM): -9%
- inhibition ([26]; compound 0.02 µM): -4.9%
- inhibition ([27]; compound 0.001 µM): 5.8%
- inhibition ([27]; compound 0.02 µM): 10.5%
- inhibition ([28]; compound 0.001 µM): 3.5%
- inhibition ([28]; compound 0.02 µM): 11.8%
- inhibition ([29]; compound 0.001 µM): -7.5%
- inhibition ([29]; compound 0.02 µM): -8.1%
- inhibition ([30]; compound 0.001 µM): -5.2%
- inhibition ([30]; compound 0.02 µM): -1.1%
- inhibition ([31]; compound 0.001 µM): -6.1%
- inhibition ([31]; compound 0.02 µM): 4.1%
- inhibition ([32]; compound 0.001 µM): -3.3%
- inhibition ([32]; compound 0.02 µM): -3.7%
- inhibition ([33]; compound 0.001 µM): -7.9%
- inhibition ([33]; compound 0.02 µM): -10.1%
- inhibition ([34]; compound 0.001 µM): -0.4%
- inhibition ([34]; compound 0.02 µM): -0.8%
SMILES: CNC(=O)c1ccccc1Sc1ccc2c(/C=C/c3ccccn3)n[nH]c2c1

- Ki [1]: 11.8 nM
- inhibition ([1]; compound 0.02 µM): 44.1%
- inhibition ([1]; compound 0.2 µM): 92.1%
- inhibition ([2]; compound 0.02 µM): 4.8%
- inhibition ([2]; compound 0.2 µM): 2.6%
- inhibition ([3]; compound 0.02 µM): 7.9%
- inhibition ([3]; compound 0.2 µM): 40.5%
- inhibition ([4]; compound 0.02 µM): -6.2%
- inhibition ([4]; compound 0.2 µM): -5.1%
- inhibition ([5]; compound 0.02 µM): 4.5%
- inhibition ([5]; compound 0.2 µM): 5.3%
- inhibition ([6]; compound 0.02 µM): 3.4%
- inhibition ([6]; compound 0.2 µM): 3.9%
- inhibition ([7]; compound 0.02 µM): 2.2%
- inhibition ([7]; compound 0.2 µM): 7.5%
- inhibition ([8]; compound 0.02 µM): 3.5%
- inhibition ([8]; compound 0.2 µM): 3.9%
- inhibition ([9]; compound 0.02 µM): -0.1%
- inhibition ([9]; compound 0.2 µM): -0.5%
- inhibition ([10]; compound 0.02 µM): -5.9%
- inhibition ([10]; compound 0.2 µM): 7.4%
- inhibition ([11]; compound 0.02 µM): -1.3%
- inhibition ([11]; compound 0.2 µM): -1.3%
- inhibition ([12]; compound 0.02 µM): -5.8%
- inhibition ([12]; compound 0.2 µM): 7.3%
- inhibition ([13]; compound 0.02 µM): -2.8%
- inhibition ([13]; compound 0.2 µM): -1.2%
- inhibition ([14]; compound 0.02 µM): -3.4%
- inhibition ([14]; compound 0.2 µM): 0.3%
- inhibition ([15]; compound 0.02 µM): -5.3%
- inhibition ([15]; compound 0.2 µM): -4.2%
- inhibition ([16]; compound 0.02 µM): -0.5%
- inhibition ([16]; compound 0.2 µM): 23.3%
- inhibition ([17]; compound 0.02 µM): -7.3%
- inhibition ([17]; compound 0.2 µM): -3%
- inhibition ([18]; compound 0.02 µM): 13.7%
- inhibition ([18]; compound 0.2 µM): 35.9%
- inhibition ([19]; compound 0.02 µM): 3.9%
- inhibition ([20]; compound 0.02 µM): -1.7%
- inhibition ([20]; compound 0.2 µM): 3.3%
- inhibition ([21]; compound 0.02 µM): 26.9%
- inhibition ([21]; compound 0.2 µM): 73.7%
- inhibition ([22]; compound 0.02 µM): -0.2%
- inhibition ([22]; compound 0.2 µM): 6.5%
- inhibition ([23]; compound 0.02 µM): 0.3%
- inhibition ([23]; compound 0.2 µM): 1.1%
- inhibition ([24]; compound 0.02 µM): 1.7%
- inhibition ([24]; compound 0.2 µM): -0.9%
- inhibition ([25]; compound 0.02 µM): -1.4%
- inhibition ([25]; compound 0.2 µM): 0.1%
- inhibition ([26]; compound 0.02 µM): 5.8%
- inhibition ([26]; compound 0.2 µM): 48.5%
- inhibition ([27]; compound 0.02 µM): 8.3%
- inhibition ([28]; compound 0.02 µM): 6.9%
- inhibition ([28]; compound 0.2 µM): 9.2%
- inhibition ([29]; compound 0.02 µM): -5%
- inhibition ([29]; compound 0.2 µM): -4.5%
- inhibition ([30]; compound 0.02 µM): -6.3%
- inhibition ([30]; compound 0.2 µM): 0.5%
- inhibition ([31]; compound 0.02 µM): -2.9%
- inhibition ([31]; compound 0.2 µM): 2.6%
- inhibition ([32]; compound 0.02 µM): -2.9%
- inhibition ([32]; compound 0.2 µM): -3.4%
- inhibition ([33]; compound 0.02 µM): -2.9%
- inhibition ([33]; compound 0.2 µM): -4.8%
- inhibition ([34]; compound 0.02 µM): 0.3%
- inhibition ([34]; compound 0.2 µM): -0.6%
SMILES: COc1cc2c(Oc3ccc4[nH]c(C)cc4c3F)ncnc2cc1OCCCN1CCCC1
